# Reference: US9725449B2, “Tricyclic compounds as anticancer agents” (BRISTOL-MYERS SQUIBB COMPANY, priority 2015, dated 2017)
# pIC50: −log10 of the molar value.
# Target: BRD4 (Homo sapiens, UniProt O60885)
# Assay: Time resolved fluorescence resonance energy transfer (TR-FRET) binding assay, bromodomain BRD4
# Settings: one of the FRET assays described; read-out: FRET BRD4 IC50
row,SMILES,pIC50
1,"Cc1nnn(C)c1-c1cnc2c3c(NS(=O)(=O)C4CC4)ncc(S(C)(=O)=O)c3n([C@H](c3ccccc3)C3CCOCC3)c2c1 [Example 97, N-[5-(Dimethyl-1H-1,2,3-triazol-5-yl)-10-methanesulfonyl-8-[(S)-oxan-4-yl(phenyl)methyl]-3,8,12-triazatricyclo[7.4.0.0^2,^7]trideca-1(13),2(7),3,5,9,11-hexaen-13-yl]cyclopropanesulfonamide]",> 9.00
2,"[2H]C([2H])([2H])c1nnn(C)c1-c1cnc2c3c(OC)ncc(S(C)(=O)=O)c3n([C@H](c3ccc(F)cc3)C3CCC(F)(F)CC3)c2c1 [Example 95, 8-[(S)-(4,4-Difluorocyclohexyl)(4-fluorophenyl)methyl]-10-methanesulfonyl-13-methoxy-5-[4-(^2H3)methyl-1-methyl-1H-1,2,3-triazol-5-yl]-3,8,12-triazatricyclo[7.4.0.0^2,^7]trideca-1(13),2(7),3,5,9,11-hexaene]",> 8.00
3,"CCOc1ncc(Cl)c2c1c1ncc(-c3c(C)nnn3C)cc1n2[C@H](c1ccccc1)C1CCOCC1 [Example 43, 10-Chloro-5-(dimethyl-1H-1,2,3-triazol-5-yl)-13-ethoxy-8-[(S)-oxan-4-yl(phenyl)methyl]-3,8,12-triazatricyclo[7.4.0.0^2,^7]trideca-1(13),2(7),3,5,9,11-hexaene]",> 9.00
4,"[2H]C([2H])([2H])c1nnn(C)c1-c1cnc2c3ccc(NC)nc3n([C@H](c3ccccc3F)C3CCOCC3)c2c1 [Example 239, 8-[(S)-(2-Fluorophenyl)(oxan-4-yl)methyl]-N-methyl-5-[4-(^2H3)methyl-1-methyl-1H-1,2,3-triazol-5-yl]-3,8,10-triazatricyclo[7.4.0.0^2,^7]trideca-1(13),2(7),3,5,9,11-hexaen-11-amine]",> 8.00
5,"[2H]C([2H])([2H])c1nnn(C)c1-c1cnc2c3c(OC(C)C)ncc(S(C)(=O)=O)c3n(C(c3ncccc3F)C3CCOCC3)c2c1 (stereo not drawn) [Example 70, 8-[(3-Fluoropyridin-2-yl)(oxan-4-yl)methyl]-10-methanesulfonyl-5-[4-(^2H3)methyl-1-methyl-1H-1,2,3-triazol-5-yl]-13-(propan-2-yloxy)-3,8,12-triazatricyclo[7.4.0.0^2,^7]trideca-1(13),2(7),3,5,9,11-hexaene]",> 9.00
6,Cc1nnn(C)c1-c1ccc2c3ncc(C(C)(C)O)cc3n([C@H](c3ccccc3)C3CCOCC3)c2n1 [Example 380],> 8.00
7,"Cc1nnn(C)c1-c1ccc2c3ncc(N4CCS(=O)(=O)CC4)cc3n([C@H](c3ccccc3)C3CCOCC3)c2n1 [Example 381, 4-[11-(Dimethyl-1H-1,2,3-triazol-5-yl)-8-[(S)-oxan-4-yl(phenyl)methyl]-3,8,10-triazatricyclo[7.4.0.0^2,^7]trideca-1(9),2(7),3,5,10,12-hexaen-5-yl]-1λ^6,4-thiomorpholine-1,1-dione]",> 8.00
8,"[2H]C([2H])([2H])c1nnn(C)c1-c1cnc2c3ccc(Cl)nc3n([C@H](c3ccccc3F)C3CCOCC3)c2c1 [Example 233, 11-Chloro-8-[(S)-(2-fluorophenyl)(oxan-4-yl)methyl]-5-[4-(^2H3)methyl-1-methyl-1H-1,2,3-triazol-5-yl]-3,8,10-triazatricyclo[7.4.0.0^2,^7]trideca-1(13),2(7),3,5,9,11-hexaene]",> 8.00
9,"[2H]C([2H])([2H])c1nnn(C)c1-c1cnc2c3cc(C(C)(C)O)cnc3n([C@H](c3ccccc3)C3CCOCC3)c2c1 [Example 349, 2-{5-[4-(^2H3)Methyl-1-methyl-1H-1,2,3-triazol-5-yl]-8-[(S)-oxan-4-yl(phenyl)methyl]-3,8,10-triazatricyclo[7.4.0.0^2,^7]trideca-1(13),2(7),3,5,9,11-hexaen-12-yl}propan-2-ol]",> 9.00
